Molecular target: MAGUK GK domain
Experiment: ITC binding to the MAGUK GK domain
Settings: from ITC studies

Ala-Arg-Arg-S5-Glu-Tyr-Leu-S5-Ala-Ile-Gln [compound 1]
binding affinity with the GK domain: no binding affinity
